Data reported in US20260062443A1 (ALEXION PHARMACEUTICALS, INC., priority 2022, published 2026).

The compounds below were run against T1, Human complement C1s enzyme (Homo sapiens, UniProt P09871) (assay: Human C1s enzyme assay). Conditions: not given.
T1 sequence (P09871 438-688 limits assumed): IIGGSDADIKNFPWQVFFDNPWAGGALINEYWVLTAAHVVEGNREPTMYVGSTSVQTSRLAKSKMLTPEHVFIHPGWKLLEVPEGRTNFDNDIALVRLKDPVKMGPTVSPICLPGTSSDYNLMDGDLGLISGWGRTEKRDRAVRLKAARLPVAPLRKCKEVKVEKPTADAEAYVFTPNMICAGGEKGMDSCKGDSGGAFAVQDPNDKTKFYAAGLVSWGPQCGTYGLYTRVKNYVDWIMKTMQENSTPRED
T1 sequence (P09871 16-437 partner limits assumed): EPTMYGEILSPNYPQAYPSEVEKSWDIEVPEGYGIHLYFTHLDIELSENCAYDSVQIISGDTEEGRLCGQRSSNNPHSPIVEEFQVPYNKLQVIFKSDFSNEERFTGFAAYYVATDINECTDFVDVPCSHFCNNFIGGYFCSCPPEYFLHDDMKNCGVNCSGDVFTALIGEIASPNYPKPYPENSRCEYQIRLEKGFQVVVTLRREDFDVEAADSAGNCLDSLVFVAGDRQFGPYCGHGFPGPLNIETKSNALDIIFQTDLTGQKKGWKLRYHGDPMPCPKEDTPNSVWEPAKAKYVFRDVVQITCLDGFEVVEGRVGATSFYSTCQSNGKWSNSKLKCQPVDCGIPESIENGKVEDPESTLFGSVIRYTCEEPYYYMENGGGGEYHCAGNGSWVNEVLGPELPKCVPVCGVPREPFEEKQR
Type: biochemical
Method in brief: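 Serum-purified human C1s (1.16 nM final) preincubated 5 min at room temperature with compound in 50 mM Tris, 1 M NaCl, pH 7.5. Z-L-Lys-SBzl and DTNB added at 100 μM each; A405 followed every 30 s for 30 min, and IC50 obtained by nonlinear regression of reaction rates.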

| SMILES | IC50 [nM] |
| --- | --- |
| C[C@@H](NC(=O)[C@@H]1C[Si](C)(C)CN1C(=O)CNC(=O)c1ccc2c(c1)Oc1ccccc1S2)c1cc2cnccc2[nH]1 [Compound 168, (R)-N-((R)-1-(1H-pyrrolo[3,2-c]pyridin-2-yl)ethyl)-3,3-dimethyl-1-((phenoxathiine-3-carbonyl)glycyl)-1,3-azasilolidine-5-carboxamide] | < 100 |

Same assay, conditions: human complement C1s enzyme 1.16 nM, substrate Z-L-Lys-SBzl 100 μM, 5 min preincubation; read-out: IC50 (Stars), C1s Inhibiting Activity

| SMILES | IC50 [nM] |
| --- | --- |
| O=C(NCC(=O)N1C[C@H](OC(F)F)C[C@H]1C(=O)NCc1cc2c(s1)CCNC2)c1ccc2c(c1)Oc1ccccc1S2 [Compound 313, (2S,4R)-4-(difluoromethoxy)-1-((phenoxathiine-3-carbonyl)glycyl)-N-((4,5,6,7-tetrahydrothieno[3,2-c]pyridin-2-yl)methyl)pyrrolidine-2-carboxamide] | < 100 |
| O=C(NCC(=O)N1CC2(C[C@H]1C(=O)NCc1cc3cnncc3[nH]1)OCCO2)c1ccc2c(c1)Oc1ccccc1S2 [Compound 37, (S)-N-((1H-pyrrolo[2,3-d]pyridazin-2-yl)methyl)-7-((phenoxathiine-3-carbonyl)glycyl)-1,4-dioxa-7-azaspiro[4.4]nonane-8-carboxamide] | < 100 |
| Nc1nc(=O)oc2cc(CNC(=O)[C@@H]3C[C@@H](OC(F)F)CN3C(=O)CNC(=O)c3ccc4c(c3)Oc3ccccc3S4)ccc12 [Compound 248, (2S,4R)-N-((4-amino-2-oxo-2H-benzo[e][1,3]oxazin-7-yl)methyl)-4-(difluoromethoxy)-1-((phenoxathiine-3-carbonyl)glycyl)pyrrolidine-2-carboxamide] | > 1000 |
| O=C(NCC(=O)N1C[C@H](OC(F)F)C[C@H]1C(=O)NCc1cc2cnccc2[nH]1)c1cc(-c2ccc(Cl)cc2)cs1 [Compound 377, (2S,4R)-N-((1H-pyrrolo[3,2-c]pyridin-2-yl)methyl)-1-((4-(4-chlorophenyl)thiophene-2-carbonyl)glycyl)-4-(difluoromethoxy)pyrrolidine-2-carboxamide] | < 100 |
| C[C@@H](NC(=O)[C@@H]1C[C@@H](OC(F)F)CN1C(=O)CNC(=O)c1ccc(Oc2ccccc2)cc1)c1cc2cnccc2[nH]1 [Compound 39, (2S,4R)-N-((R)-1-(1H-pyrrolo[3,2-c]pyridin-2-yl)ethyl)-4-(difluoromethoxy)-1-((4-phenoxybenzoyl)glycyl)pyrrolidine-2-carboxamide] | < 100 |
| CC(C)c1ccc(Oc2cccc(C(=O)NCC(=O)N3C[C@H](OC(F)F)C[C@H]3C(=O)NCc3cc4cnccc4[nH]3)c2)cc1 [Compound 215, (2S,4R)-N-((1H-pyrrolo[3,2-c]pyridin-2-yl)methyl)-4-(difluoromethoxy)-1-((3-(4-isopropylphenoxy)benzoyl)glycyl)pyrrolidine-2-carboxamide] | < 100 |
| O=C(NCC(=O)N1C[C@H](OC(F)F)C[C@H]1C(=O)NCc1ccc2nncn2c1)c1ccc2c(c1)Oc1ccccc1S2 [Compound 225, (2S,4R)-N-([1,2,4]triazolo[4,3-a]pyridin-6-ylmethyl)-4-(difluoromethoxy)-1-((phenoxathiine-3-carbonyl)glycyl)pyrrolidine-2-carboxamide] | > 1000 |
| COC[C@@]1(F)C[C@@H](C(=O)N[C@H](C)c2cc3cnccc3[nH]2)N(C(=O)CNC(=O)c2ccc(Oc3ccccc3)cc2)C1 [Compound 40, (2S,4R)-N-((R)-1-(1H-pyrrolo[3,2-c]pyridin-2-yl)ethyl)-4-fluoro-4-(methoxymethyl)-1-((4-phenoxybenzoyl)glycyl) pyrrolidine-2-carboxamide] | 100 to 1000 |
| O=C(NCC(=O)N1CC2(C[C@H]1C(=O)NCc1cc3cnccc3[nH]1)OCCO2)c1ccc(Oc2ccccc2)cc1 [Compound 32, (S)-N-((1H-pyrrolo[3,2-]pyridin-2-yl)methyl)-7-((4-phenoxybenzoyl)glycyl)-1,4-dioxa-7-azaspiro[4.4]nonane-8-carboxamide] | < 100 |
| C[C@@H](NC(=O)[C@@H]1C[C@](F)(Cn2ccnn2)CN1C(=O)CNC(=O)c1ccc2c(c1)Oc1ccccc1S2)c1cc2cnccc2[nH]1 [Compound 216, (2S,4R)-4-((1H-1,2,3-triazol-1-yl)methyl)-N-((R)-1-(1H-pyrrolo[3,2-c]pyridin-2-yl)ethyl)-4-fluoro-1-((phenoxathiine-3-carbonyl)glycyl)pyrrolidine-2-carboxamide] | < 100 |
| C[C@@H](NC(=O)[C@@H]1C[C@@H](OC(F)F)CN1C(=O)CNC(=O)c1ccc(Oc2ccc(F)cc2)cc1)c1cc2cnccc2s1 [Compound 205, (2S,4R)-4-(difluoromethoxy)-1-((4-(4-fluorophenoxy)benzoyl)glycyl)-N-((R)-1-(thieno[3,2-c]pyridin-2-yl)ethyl)pyrrolidine-2-carboxamide] | 100 to 1000 |
| Cc1ccc(-c2cnc(C(=O)NCC(=O)N3CC4(C[C@H]3C(=O)N[C@H](C)c3cc5cnccc5[nH]3)OCCO4)c(F)c2)cc1 [Compound 115, (S)-N-((R)-1-(1H-pyrrolo[3,2-c]pyridin-2-yl)ethyl)-7-((3-fluoro-5-(p-tolyl)picolinoyl)glycyl)-1,4-dioxa-7-azaspiro[4.4]nonane-8-carboxamide] | > 1000 |
| O=C(NCC(=O)N1CC2(C[C@H]1C(=O)NCc1cc3cncc(F)c3[nH]1)OCCO2)c1ccc2c(c1)Oc1ccccc1S2 [Compound 45, (S)-N-((7-fluoro-1H-pyrrolo[3,2-c]pyridin-2-yl)methyl)-7-((phenoxathiine-3-carbonyl)glycyl)-1,4-dioxa-7-azaspiro[4.4]nonane-8-carboxamide] | > 1000 |
| C[C@@H](NC(=O)[C@@H]1C[C@]2(C)C[C@@H]2N1C(=O)CNC(=O)c1ccc2oc3ccccc3c2c1)c1cc2cnccc2[nH]1 [Compound 200, (1S,3S,5S)-N-((R)-1-(1H-pyrrolo[3,2-c]pyridin-2-yl)ethyl)-2-((dibenzo[b,d]furan-2-carbonyl)glycyl)-5-methyl-2-azabicyclo[3.1.0]hexane-3-carboxamide] | < 100 |

The next lines start with the values.

| IC50 [nM] | SMILES |
| --- | --- |
| < 100 | Cc1ccc(Oc2cccc(C(=O)NCC(=O)N3CC4(C[C@H]3C(=O)NCc3cc5cnccc5[nH]3)OCCO4)c2)c(F)c1 [Compound 307, (S)-N-((1H-pyrrolo[3,2-c]pyridin-2-yl)methyl)-7-((3-(2-fluoro-4-methylphenoxy)benzoyl)glycyl)-1,4-dioxa-7-azaspiro[4.4]nonane-8-carboxamide] |
| > 1000 | O=C(NCC(=O)N1C[C@H](OC(F)F)C[C@H]1C(=O)NCc1ccn2cnnc2c1)c1ccc2c(c1)Oc1ccccc1S2 [Compound 224, (2S,4R)-N-([1,2,4]triazolo[4,3-a]pyridin-7-ylmethyl)-4-(difluoromethoxy)-1-((phenoxathiine-3-carbonyl)glycyl)pyrrolidine-2-carboxamide] |
| < 100 | C[C@@H](NC(=O)[C@@H]1CC(Cn2ccnc2)CN1C(=O)CNC(=O)c1ccc2c(c1)Oc1ccccc1S2)c1cc2cnccc2[nH]1 (stereo partly drawn) [Compound 184, (2S)-4-((1H-imidazol-1-yl)methyl)-N-((R)-1-(1H-pyrrolo[3,2-c]pyridin-2-yl)ethyl)-1-((phenoxathiine-3-carbonyl)glycyl)pyrrolidine-2-carboxamide] |
| < 100 | Cc1ccc(Oc2cccc(C(=O)NCC(=O)N3C[C@H](OC(F)F)C[C@H]3C(=O)NCc3cc4cnccc4[nH]3)c2)cc1 [Compound 272] |
| 100 to 1000 | O=C(NCC(=O)N1CC2(C[C@H]1C(=O)NCc1cc3cnccc3s1)OCCO2)c1cccc(Oc2ccc(F)cc2)c1 [Compound 255, (S)-7-((3-(4-fluorophenoxy)benzoyl)glycyl)-N-(thieno[3,2-c]pyridin-2-ylmethyl)-1,4-dioxa-7-azaspiro[4.4]nonane-8-carboxamide] |
| > 1000 | O=C(NCC(=O)N1CC2(C[C@H]1C(=O)NCc1ccn[nH]1)OCCO2)c1ccc(Oc2ccccc2)cc1 [Compound 12, (S)-N-((1H-pyrazol-5-yl)methyl)-7-((4-phenoxybenzoyl)glycyl)-1,4-dioxa-7-azaspiro[4.4]nonane-8-carboxamide] |
| < 100 | COC[C@@]1(F)C[C@@H](C(=O)NCc2cc3cnccc3[nH]2)N(C(=O)CNC(=O)c2ccc3c(c2)-c2ccccc2C3(F)F)C1 [Compound 5, (2S,4R)-N-((1H-pyrrolo[3,2-c]pyridin-2-yl)methyl)-1-((9,9-difluoro-9H-fluorene-3-carbonyl)glycyl)-4-fluoro-4-(methoxymethyl)pyrrolidine-2-carboxamide] |
| < 100 | Cc1ccc(-c2ccc3c(c2)CN(CC(=O)N2C[C@H](OC(F)F)C[C@H]2C(=O)N[C@H](C)c2cc4cnccc4[nH]2)C3=O)c(C)c1 [Compound 106, (2S,4R)-N-((R)-1-(1H-pyrrolo[3,2-c]pyridin-2-yl)ethyl)-4-(difluoromethoxy)-1-(2-(5-(2,4-dimethylphenyl)-1-oxoisoindolin-2-yl)acetyl)pyrrolidine-2-carboxamide] |
| < 100 | C[C@@H](NC(=O)[C@@H]1CC2(CN1C(=O)CNC(=O)c1ccc3c(c1)-c1ccccc1C3(F)F)OCCO2)c1cc2cnccc2[nH]1 [Compound 38, (S)-N-((R)-1-(1H-pyrrolo[3,2-c]pyridin-2-yl)ethyl)-7-((9,9-difluoro-9H-fluorene-3-carbonyl)glycyl)-1,4-dioxa-7-azaspiro[4.4]nonane-8-carboxamide] |
